# Key:
# abdominal viscera = experiment: Peritonitis (adhesion and hardening of abdominal viscera); assay type: in vivo, mouse
# Procedure: (§1) The solutions of these compounds were prepared extemporaneously.
# As discussed above this problem seems to be linked to the presence of the 1,2-diaminocyclohexane ligand.
# DNA = experiment: Platinum fixed on DNA of L 1210 cells in vivo; set-up: species or system mouse (DBA/2); settings: PDD 9 mg/kg, PHIC 150 mg/kg; two hours after treatment on D3
# Procedure: DBA/2 mice received 10^6 L 1210 cells on D0 and were treated three days later with an amount of platinum compound equal to the LD0 in the healthy mouse. Two hours after treatment on D3, the animals were sacrificed. […] Platinum was monitored by atomic absorption for whole cells and also on the DNA which was purified by phenol extraction. […] Under these conditions, one fixed platinum atom per 3000 nucleotides was found, i.e. a total of 1% of the amount which penetrated the cells was complexed to DNA. […] 10^-16 of platinum per cell.
# sarcoma S 180 = experiment: Anti-tumour activity, sarcoma S 180 ascite, i.p. graft, i.p. treatment; assay type: in vivo, mouse (Swiss female); settings: for ILS: single i.p. on D1
# Procedure: Swiss female mice (Evic-Ceba, Bordeaux) of 20 to 22 g
# 10^6 cells intraperitoneally grafted on D0
# intraperitoneal treatment 24 hours later, D1, in one single injection.
# as §1
# L 1210 cells = experiment: Cytotoxicity on L 1210 cells in culture; assay type: cell-based; settings: read-out: ID50 (reduces by 50% the rate of growth of the cells); usually 24 to 48 hours contact
# leukemia L 1210 = experiment: Anti-tumour activity, leukemia L 1210, i.p. graft, i.p. treatment
# Procedure: […] females (CNRS, Orleans) of 20 to 22 g
# (a) i.p. graft--i.p. treatment
# 10^5 cells were grafted intraperitoneally on D0 and intraperitoneal treatment was carried out 24 hours later, D1, in one single injection.
# PHD and PHM were suspended in a 4% Klucel (hydroxy propyl cellulose) solution (the word "Klucel" is a registered trademark of Hercules Incorporated, Delaware, U.S.A.).
# The solutions of these compounds were prepared extemporaneously. The increase in life span, ILS (%), were calculated in comparison with the controls by the following formula: [formula] Deaths were recorded until day 30 for L 1210 tumour and until day 60 for S180 tumour.
# [1] = test system: renal and hepatic parenchyma; experiment: Renal and hepatic toxicity; assay type: in vivo, mouse (Swiss female)
# Procedure: It was thus of interest to compare the effects of the novel compound of the invention with those of the already known compounds listed above on the kidney and the liver, i.e. the organs in which the greatest amount of platinum accumulates.
# Swiss female mice (Evic-Ceba, Bordeaux) of 20 to 22 g were treated by intraperitoneal route D0 and then sacrificed on D1, D4 and D10.
# Slices 5 microns thick were coloured with hemalun eosine stain.
# mouse = experiment: Acute toxicity in the mouse; assay type: in vivo, mouse (Swiss female); settings: mouse, one single injection
# Procedure: Acute toxicity, one single injection of the compound, was measured using Swiss female mice (Evic-Ceba, Bordeaux) of 21 to 23 g. and Sprague-Dawley rats. Ten animals were treated for each dose studied.
# [2] = Stability in sodium chloride solution; assay type: physicochemical; settings: 9% sodium chloride
# Procedure: This compound has an exceptionally high degree of solubility.
# as §1
# [3] = S 180, 4 mg/kg i.p. on D1, day 60
# [4] = L 1210, 4 mg/kg i.p. on D1, day 30
# [5] = S 180, 1 mg/kg i.p. on D1, day 60
# [6] = S 180, 2 mg/kg i.p. on D1, day 60
# [7] = S 180, 5 mg/kg i.p. on D1, day 60
# [8] = S 180, 10 mg/kg i.p. on D1, day 60
# [9] = S 180, 50 mg/kg i.p. on D1, day 60
compound,measurement,setting,value
"N.N.[Cl][Pt][Cl] [PDD, cis-dichlorodiammine platinum (II)]","occurrence of peritonitis in relation to the 1,2-diaminocyclohexane ligand","abdominal viscera; mouse, in vivo, ip",never observed
same,Number of fixed platinum atoms per nucleotide on DNA,DNA,1/30000
same,amount that penetrated the cells which was complexed to DNA,DNA,1%
same,nucleotides per one fixed platinum atom,DNA,3000 nucleotides
same,ILS,sarcoma S 180; 4 mg/kg,41%
same,ILS,sarcoma S 180; 8 mg/kg,65%
same,Survivals,sarcoma S 180; [3],0%
same,Survivals,"sarcoma S 180; S 180, 8 mg/kg i.p. on D1, day 60",0%
same,IC50,L 1210 cells,2330 nM
same,ILS,"leukemia L 1210; 2 mg/kg, single i.p. on D1",28%
same,ILS,"leukemia L 1210; 4 mg/kg, single i.p. on D1",52%
same,ILS,"leukemia L 1210; 6 mg/kg, single i.p. on D1",75%
same,ILS,"leukemia L 1210; 8 mg/kg, single i.p. on D1",106%
same,Survivals,leukemia L 1210; [4],0%
same,Survivals,"leukemia L 1210; L 1210, 6 mg/kg i.p. on D1, day 30",0%
same,Survivals,"leukemia L 1210; L 1210, 8 mg/kg i.p. on D1, day 30",0%
same,Surviving animals having received L 1210 leukaemia and S 180 sarcoma,leukemia L 1210; summary for L 1210 and S 180,No
"NC1CCCCC1N.[Cl][Pt][Cl] (stereo not drawn) [PHD, CIS-DICHLORO(1,2-DIAMINOCYCLOHEXANE) PLATINUM (II)]",renal and hepatic alterations,"[1]; mouse, in vivo, ip",vascular alterations without any hyaline casts
same,"occurrence of peritonitis in relation to the 1,2-diaminocyclohexane ligand","abdominal viscera; mouse, in vivo, ip","seems to be correlated with the presence of 1,2-diaminocyclohexane"
same,ILS,sarcoma S 180; 1 mg/kg,100%
same,ILS,sarcoma S 180; 2 mg/kg,128%
same,ILS,sarcoma S 180; 4 mg/kg,127%
same,Survivals,sarcoma S 180; [5],0%
same,Survivals,sarcoma S 180; [6],20%
same,Survivals,sarcoma S 180; [3],10%
same,IC50,L 1210 cells,130 nM
same,LD0 (maximum nonlethal dose),mouse,7 mg/kg
same,ILS,"leukemia L 1210; 1 mg/kg, single i.p. on D1",5%
same,ILS,"leukemia L 1210; 2 mg/kg, single i.p. on D1",49%
same,ILS,"leukemia L 1210; 4 mg/kg, single i.p. on D1",65%
same,Survivals,"leukemia L 1210; L 1210, 1 mg/kg i.p. on D1, day 30",0%
same,Survivals,"leukemia L 1210; L 1210, 2 mg/kg i.p. on D1, day 30",0%
same,Survivals,leukemia L 1210; [4],0%
"NC1CCCCC1N.O=C([O-])CC(=O)[O-].[Pt+2] (stereo not drawn) [PHM, cis-malonato (1,2 diaminocyclohexane) platinum (II)]",renal and hepatic alterations,"[1]; mouse, in vivo, ip",These alterations were observed
same,"occurrence of peritonitis in relation to the 1,2-diaminocyclohexane ligand","abdominal viscera; mouse, in vivo, ip","seems to be correlated with the presence of 1,2-diaminocyclohexane"
same,peritonitis,"abdominal viscera; mouse, in vivo, ip",most of the mice reaching 30 days of survival treatment with PHM and PHIC developed peritonitis
same,ILS,sarcoma S 180; 5 mg/kg,25%
same,ILS,sarcoma S 180; 10 mg/kg,36%
same,ILS,sarcoma S 180; 20 mg/kg,44%
same,ILS,sarcoma S 180; 40 mg/kg,60%
same,ILS,sarcoma S 180; 50 mg/kg,96%
same,Survivals,sarcoma S 180; [7],0%
same,Survivals,sarcoma S 180; [8],0%
same,Survivals,"sarcoma S 180; S 180, 20 mg/kg i.p. on D1, day 60",0%
same,Survivals,"sarcoma S 180; S 180, 40 mg/kg i.p. on D1, day 60",0%
same,Survivals,sarcoma S 180; [9],0%
same,IC50,L 1210 cells,390 nM
same,ILS,"leukemia L 1210; 50 mg/kg, single i.p. on D1",103%
same,Survivals,"leukemia L 1210; L 1210, 50 mg/kg i.p. on D1, day 30",10%
"NC1CCCCC1N.O.O=S(=O)([O-])[O-].[Pt+2] (stereo not drawn) [PHS, cis-sulfatomonoaquo(1,2 diaminocyclohexane) platinum (II)]",renal and hepatic alterations,"[1]; i.p. at ~LD0 (mg/kg): PDD 8, PAC 100, PHM 50, PHD 4, PHS 5, PHC 120, PHIC 150, D1, D4, D10",vascular dilation and proximal distorted tubules
same,"occurrence of peritonitis in relation to the 1,2-diaminocyclohexane ligand",abdominal viscera; i.p.,"seems to be correlated with the presence of 1,2-diaminocyclohexane"
same,ILS,sarcoma S 180; 0.5 mg/kg,4%
same,ILS,sarcoma S 180; 1 mg/kg,10%
same,ILS,sarcoma S 180; 2 mg/kg,25%
same,ILS,sarcoma S 180; 4 mg/kg,47%
same,ILS,sarcoma S 180; 5 mg/kg,112%
same,Survivals,"sarcoma S 180; S 180, 0.5 mg/kg i.p. on D1, day 60",0%
same,Survivals,sarcoma S 180; [5],0%
same,Survivals,sarcoma S 180; [6],0%
same,Survivals,sarcoma S 180; [3],0%
same,Survivals,sarcoma S 180; [7],10%
same,change to chlorinated derivative in sodium chloride solution,[2],almost instantaneously to the formation of a yellow insoluble chlorinated compound
same,IC50,L 1210 cells,190 nM
same,ILS,"leukemia L 1210; 5 mg/kg, single i.p. on D1",112%
same,Survivals,"leukemia L 1210; L 1210, 5 mg/kg i.p. on D1, day 30",40%
"cis-(t-aconitato) (1,2-diaminocyclohexane) platinum (II) [PHTA, reference compound]",LD0 (maximum nonlethal dose),mouse,> 500 mg/kg
same,ILS,"leukemia L 1210; 500 mg/kg, single injection on D1",13%
"cis-citrato (1,2-diaminocyclohexane) platinum (II) [PHC]",renal and hepatic alterations,"[1]; mouse, in vivo, ip",did not provoke any significant alterations
same,"occurrence of peritonitis in relation to the 1,2-diaminocyclohexane ligand","abdominal viscera; mouse, in vivo, ip","seems to be correlated with the presence of 1,2-diaminocyclohexane"
same,ILS,sarcoma S 180; 10 mg/kg,20%
same,ILS,sarcoma S 180; 25 mg/kg,124%
same,ILS,sarcoma S 180; 50 mg/kg,121%
same,Survivals,sarcoma S 180; [8],0%
same,Survivals,"sarcoma S 180; S 180, 25 mg/kg i.p. on D1, day 60",20%
same,Survivals,sarcoma S 180; [9],30%
same,ILS,"leukemia L 1210; 120 mg/kg, single i.p. on D1, with 5 mice only",90%
same,Survivals,"leukemia L 1210; L 1210, 120 mg/kg i.p. on D1, day 30",0%
cis-citratodiammineplatinum (II) [PAC],renal and hepatic alterations,"[1]; mouse, in vivo, ip",These alterations were observed
same,"occurrence of peritonitis in relation to the 1,2-diaminocyclohexane ligand","abdominal viscera; mouse, in vivo, ip",never observed
same,LD0 (maximum nonlethal dose),mouse,125 mg/kg
same,ILS,"leukemia L 1210; 100 mg/kg, single injection on D1",17%
cis-isocitratodiammineplatinum(II) [PAIC],"occurrence of peritonitis in relation to the 1,2-diaminocyclohexane ligand","abdominal viscera; mouse, in vivo, ip",never observed
same,LD0 (maximum nonlethal dose),mouse,75 mg/kg
same,ILS,"leukemia L 1210; 75 mg/kg, single injection on D1",74%

# Reference: patent US4452812A, “Organic complex of platinum, its preparation and its use for treating malignant tumors” (Sanofi, priority 1980, dated 1984)
